Measurements as given in patent US20250129385A1, “GENE-EDITING METHODS FOR EMBRYONIC STEM CELLS” (ABS Global, Inc., priority 2022, published 2025).

How the values were obtained:
Assay type in all cases: cell-based
ROSA safe harbor locus = assay: CRISPR-Cas9 RNP gene editing of bovine ESC, indels by Sanger sequencing/TIDE, ROSA locus; settings: gbESC_H2682 cells; RNP 20 pmol SpCas9 + 60 pmol sgRNA, program CM138; DNA after four days; TIDE
Procedure: (§1) Test edits were performed in the ROSA and CD18 loci. CRISPR guides targeting the CD18 (ITGB2) gene at chr1:144,776,517, or the ROSA safe harbor locus region chr22:17,210,883-17,210,982, (genome assembly ARS-UCD1.2/bosTau9) were designed and synthesized as sgRNA molecules (IDT, Coralville IA) as shown in Table 2.
(§2) Ribonucleoprotein complexes formed from 20 pmol SpCas9 (IDT, Coralville IA) and 60 pmol sgRNA were electroporated into gbESC_H2682 cells using P3 nucleofection solution and the Amaxa 4D program CM138. After four days DNA from the cells was harvested using QUICKEXTRACT™ reagent (Lucigen, Middleton WI), and PCR was performed using the primers in Table 3.

CD18 (ITGB2) gene = assay: CRISPR-Cas9 RNP gene editing of bovine ESC, indels by Sanger sequencing/TIDE, CD18 locus; settings: gbESC_H2682 cells; RNP 20 pmol SpCas9 + 60 pmol sgRNA, program CM138; DNA after four days; TIDE
Procedure: as §1, §2

[1] = test system: Porcine stem cell line C2; assay: Single passage cell growth in media #2 with additives (CELLTITER-GLO 2.0); settings: simple defined media #2 plus additive, day five; for Cell Growth (% of simple media): line C2 passaged 1:80, laminin 521, changed daily
Procedure: A revised simple defined media #2 (Table 6, with lower ascorbic acid and FGF2) was used to determine any immediate benefit of certain additives over the timeframe of one passage.
Porcine stem cell line C2 (see Example 2) growing in the standard TI media conditions was passaged at a 1:80 ratio into a laminin 521 coated 24 well plate containing simple defined media #2 alone or with the addition of 1% bovine serum albumin, 1% Albumax, 1 mg/mL polyvinyl acetate, 1:500 chemically defined lipids (Gibco), 1:500 lipid mixture solution (Peprotech), 1:1000 Trace Elements B or C (Corning), sodium bicarbonate, and double the amount of ITS (insulin/transferrin/selenium). Cells were incubated at 38.5° C./5% 02 and media and additives were changed daily. On day five cell growth was measured using the CELLTITER-GLO® 2.0 kit (Promega, Madison WI).

seventh exon of CD163 = assay: CRISPR-CAS9 editing of porcine ESC, single-cell clones screened by PCR genotyping; settings: two guides together, C9 line; RNP 20 pmol SpCas9 + 60 pmol sgRNA, pulse DS137; colonies screened at day 21
From the text: As proof of concept, the present inventors sought to create the CD163 edit disclosed in U.S. Pat. No. 11,535,850. Two guides, ctggcttact cctatcatga agg (SEQ ID NO: 103) and tcccatgcca tgaagagggt agg (SEQ ID NO: 104) were used to excise the seventh exon of CD163. These guides were electroporated into the C9 line by mixing cells in P3 nucleofection solution with ribonucleoprotein (20 pmol SpCas9 complexed with 60 pmol of the guide sgRNA) and using the pulse condition DS137 in a 4D-Nucleofector system (Lonza, Walkersville MD). Between day 7 and 12 post-electroporation, single cells were deposited one per well into a 96 well plate (coated with laminin 521 and containing TI media with Y27632) using a Hana Single Cell Dispenser instrument (Namocell, San Jose CA). Cells were allowed to grow until day 21, and then colonies were screened by PCR genotyping (see 11,535,850).

Molecule: 748: sgRNA, guide sequence TGTCGAGTCTCGATTATGGG, targeting bovine ROSA safe harbor locus (listed as DNA, chemistry not given here; listed as Bos taurus) [compound 748]
- Efficiency (%) (editing frequency) (ROSA safe harbor locus): 74.3%

Molecule: 749: sgRNA, guide sequence ATAATCGAGACTCGACATGG, targeting bovine ROSA safe harbor locus (listed as DNA, chemistry not given here; listed as Bos taurus) [compound 749]
- Efficiency (%) (editing frequency) (ROSA safe harbor locus): 66.5%

Molecule: 750: sgRNA, guide sequence AGGCGATGACGAGATCGCGG, targeting bovine ROSA safe harbor locus (listed as DNA, chemistry not given here; listed as Bos taurus) [compound 750]
- Efficiency (%) (editing frequency) (ROSA safe harbor locus): 58.2%

Molecule: 754: sgRNA, guide sequence CCCCGTGGGACTCACCGGAC, targeting bovine CD18 (ITGB2) gene (listed as DNA, chemistry not given here; listed as Bos taurus) [compound 754]
- Efficiency (%) (editing frequency) (CD18 (ITGB2) gene): 34.9%

Molecule: O=C([O-])O.[Na+] [Sodium bicarbonate]
- Cell Growth (% of simple media) [1]: 75%

Molecule: + 1% BSA (Gibco A10008-01): 1% bovine serum albumin added to simple defined media #2
- effect on cell growth in words ([1]; line C2): beneficial to cell growth
- Cell Growth (% of simple media) [1]: 187%

Molecule: SEQ ID NO: 103: guide ctggcttact cctatcatga agg used to excise the seventh exon of CD163 (guide CTGGCTTACTCCTATCATGAAGG; listed as DNA, chemistry not given here; listed as Sus scrofa)
- clones homozygous for the CD163 edit (seventh exon of CD163): Two clones that were homozygous for the edit were found

Molecule: SEQ ID NO: 104: guide tcccatgcca tgaagagggt agg used to excise the seventh exon of CD163 (guide TCCCATGCCATGAAGAGGGTAGG; listed as DNA, chemistry not given here; listed as Sus scrofa)
- clones homozygous for the CD163 edit (seventh exon of CD163): Two clones that were homozygous for the edit were found
